Measured values reported in patent US12331040B2 (Karyopharm Therapeutics Inc., priority 2013, dated 2025).
Like-named read-outs stand apart in the source and are kept apart here.

Assays:
Assay in all cases: MTT cell proliferation assay
Assay type in all cases: cell-based
3T3 cells = details: Mus musculus, NIH3T3, approximately 64-72 hours incubation
Outline: (§1)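 5,000-10,000 cells/well, overnight attach; 8 conc., 1 nM–30 μM; MTT ~4 h; formazan solubilized, OD 490 nm; % inhibition = (1−(ODo/OD))×100 vs neg. control; mostly duplicate, mean±SE.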

MS751 cells = details: Homo sapiens, MS751, MS751 cells, approximately 64-72 hours incubation
Outline: as §1

Z138 cells = details: Homo sapiens, Z-138, Z138 cells, approximately 64-72 hours incubation
Outline: as §1

[1] = read-out: MTT Assay IC50 MS-751
[2] = read-out: MTT Assay IC50, MS-751
[3] = read-out: MTT Assay IC50, Z-138

`Nc1ccc(/C=C/C(=O)NCc2cc3cc(-c4ccc(C(=O)N5CCOCC5)cc4)cc(C(F)F)c3o2)cn1` [Compound 557, (E)-3-(6-aminopyridin-3-yl)-N-((7-(difluoromethyl)-5-(4-(morpholine-4-carbonyl)phenyl)benzofuran-2-yl)methyl)acrylamide] was tested, and the IC50 (3T3 cells; read-out: MTT Assay IC50 3T3) was > 10 µM, the IC50 (MS751 cells; [1]) was 0.1 to 5 µM and the IC50 (Z138 cells; read-out: MTT Assay IC50 Z-138) was 0.1 to 5 µM.
With `Nc1ccc(/C=C/C(=O)NCc2cc3cc(-c4ccc(C(=O)N5CCC(F)(F)CC5)cc4)cc(-c4cccc(Cl)c4)c3o2)cn1` [Compound 741, (E)-3-(6-aminopyridin-3-yl)-N-((7-(3-chlorophenyl)-5-(4-(4,4-difluoropiperidine-1-carbonyl)phenyl)benzofuran-2-yl)methyl)acrylamide] the IC50 (3T3 cells; read-out: MTT Assay IC50, 3T3) was 0.1 to 5 µM, the IC50 (MS751 cells; [2]) was < 0.1 µM and the IC50 (Z138 cells; [3]) was < 0.1 µM.
For `COc1ccc(Cl)cc1-c1cc(-c2ccc(C(=O)N3CCC(F)(F)CC3)cc2)cc2cc(CNC(=O)/C=C/c3ccc(N)nc3)oc12` [Compound 730, (E)-3-(6-aminopyridin-3-yl)-N-((7-(5-chloro-2-methoxyphenyl)-5-(4-(4,4-difluoropiperidine-1-carbonyl)phenyl)benzofuran-2-yl)methyl)acrylamide], the IC50 (3T3 cells; read-out: MTT Assay IC50, 3T3) was < 0.1 µM, the IC50 (MS751 cells; [2]) was < 0.1 µM and the IC50 (Z138 cells; [3]) was < 0.1 µM.
For `Nc1ccc(/C=C/C(=O)NCc2cc3cc(-c4ccc(F)c(C(=O)N5CCOCC5)n4)cc(Cl)c3o2)cn1` [Compound 581, (E)-3-(6-aminopyridin-3-yl)-N-((7-chloro-5-(5-fluoro-6-(morpholine-4-carbonyl)pyridin-2-yl)benzofuran-2-yl)methyl)acrylamide], the IC50 (3T3 cells; read-out: MTT Assay IC50 3T3) was > 10 µM, the IC50 (MS751 cells; [1]) was < 0.1 µM and the IC50 (Z138 cells; read-out: MTT Assay IC50 Z-138) was < 0.1 µM.
`O=C(/C=C/c1cccnc1)NCc1cc2cc(-c3ccc(C(=O)N4CCC(F)(F)CC4)cn3)cc(-c3ccc(F)cc3)c2o1` [Compound 719, (E)-N-((5-(5-(4,4-difluoropiperidine-1-carbonyl)pyridin-2-yl)-7-(4-fluorophenyl)benzofuran-2-yl)methyl)-3-(pyridin-3-yl)acrylamide] was tested, and the IC50 (3T3 cells; read-out: MTT Assay IC50, 3T3) was < 0.1 µM, the IC50 (MS751 cells; [2]) was < 0.1 µM and the IC50 (Z138 cells; [3]) was < 0.1 µM.
`Nc1ccc(/C=C/C(=O)NCc2cc3cc(-c4ccc(C(=O)N5CCC(F)(F)CC5)cc4)cc(-c4cccnc4)c3o2)cn1` [Compound 724, (E)-3-(6-aminopyridin-3-yl)-N-((5-(4-(4,4-difluoropiperidine-1-carbonyl)phenyl)-7-(pyridin-3-yl)benzofuran-2-yl)methyl)acrylamide] was tested, and the IC50 (3T3 cells; read-out: MTT Assay IC50, 3T3) was 0.1 to 5 µM, the IC50 (MS751 cells; [2]) was < 0.1 µM and the IC50 (Z138 cells; [3]) was < 0.1 µM.
For `Nc1ccc(/C=C/C(=O)NCc2cc3cc(-c4ccc(C(=O)N5CC[C@@H](F)C5)cc4)cc(C(F)(F)F)c3o2)cn1` [Compound 522, (R,E)-3-(6-aminopyridin-3-yl)-N-((5-(4-(3-fluoropyrrolidine-1-carbonyl)phenyl)-7-(trifluoromethyl)benzofuran-2-yl)methyl)acrylamide], the IC50 (3T3 cells; read-out: MTT Assay IC50 3T3) was > 10 µM, the IC50 (MS751 cells; [1]) was 0.1 to 5 µM and the IC50 (Z138 cells; read-out: MTT Assay IC50 Z-138) was 0.1 to 5 µM.
With `Nc1ccc(/C=C/C(=O)NCc2cc3cc(-c4ccc(C(=O)NC5CCC(F)(F)CC5)cn4)cc(C(F)(F)F)c3o2)cn1` [Compound 629, (E)-6-(2-((3-(6-aminopyridin-3-yl)acrylamido)methyl)-7-(trifluoromethyl)benzofuran-5-yl)-N-(4,4-difluorocyclohexyl)nicotinamide] the IC50 (3T3 cells; read-out: MTT Assay IC50 3T3) was > 10 µM, the IC50 (MS751 cells; [1]) was 0.1 to 5 µM and the IC50 (Z138 cells; read-out: MTT Assay IC50 Z-138) was 0.1 to 5 µM.
With `Nc1ccc(/C=C/C(=O)NCc2cc3cc(-c4ccc(C(=O)N5CCC(F)(F)CC5)cc4)cc(-c4cc(F)ccc4F)c3o2)cn1` [Compound 740, (E)-3-(6-aminopyridin-3-yl)-N-((7-(2,5-difluorophenyl)-5-(4-(4,4-difluoropiperidine-1-carbonyl)phenyl)benzofuran-2-yl)methyl)acrylamide] the IC50 (3T3 cells; read-out: MTT Assay IC50, 3T3) was 0.1 to 5 µM, the IC50 (MS751 cells; [2]) was < 0.1 µM and the IC50 (Z138 cells; [3]) was < 0.1 µM.
In the case of `Nc1ccc(/C=C/C(=O)NCc2cc3cc(-c4ccc(C(=O)N5CCC(F)(F)CC5)cc4)cc(-c4ccccn4)c3o2)cn1` [Compound 746, (E)-3-(6-aminopyridin-3-yl)-N-((5-(4-(4,4-difluoropiperidine-1-carbonyl)phenyl)-7-(pyridin-2-yl)benzofuran-2-yl)methyl)acrylamide], the IC50 (3T3 cells; read-out: MTT Assay IC50, 3T3) is reported as 0.1 to 5 µM, the IC50 (MS751 cells; [2]) is reported as < 0.1 µM and the IC50 (Z138 cells; [3]) is reported as < 0.1 µM.
With `Nc1ccc(/C=C/C(=O)NCc2cc3cc(-c4ccc(C(=O)N5CCC(Cl)CC5)cn4)cc(C(F)(F)F)c3o2)cn1` [Compound 614, (E)-3-(6-aminopyridin-3-yl)-N-((5-(5-(4-chloropiperidine-1-carbonyl)pyridin-2-yl)-7-(trifluoromethyl)benzofuran-2-yl)methyl)acrylamide] the IC50 (3T3 cells; read-out: MTT Assay IC50 3T3) was > 10 µM, the IC50 (MS751 cells; [1]) was 0.1 to 5 µM and the IC50 (Z138 cells; read-out: MTT Assay IC50 Z-138) was 0.1 to 5 µM.
`Nc1ccc(/C=C/C(=O)NCc2cc3cc(-c4ccc(C(=O)N5CC(F)(F)C5)cc4)cc(Cl)c3o2)cn1` [Compound 508, (E)-3-(6-aminopyridin-3-yl)-N-((7-chloro-5-(4-(3,3-difluoroazetidine-1-carbonyl)phenyl)benzofuran-2-yl)methyl)acrylamide] was tested, and the IC50 (3T3 cells; read-out: MTT Assay IC50 3T3) was > 10 µM, the IC50 (MS751 cells; [1]) was 0.1 to 5 µM and the IC50 (Z138 cells; read-out: MTT Assay IC50 Z-138) was 0.1 to 5 µM.
For `CC1(C)CNCCN1C(=O)c1ccc(-c2cc(C(F)(F)F)c3oc(CNC(=O)/C=C/c4ccc(N)nc4)cc3c2)cc1` [Compound 575, (E)-3-(6-aminopyridin-3-yl)-N-((5-(4-(2,2-dimethylpiperazine-1-carbonyl)phenyl)-7-(trifluoromethyl)benzofuran-2-yl)methyl)acrylamide], the IC50 (3T3 cells; read-out: MTT Assay IC50 3T3) was > 10 µM, the IC50 (MS751 cells; [1]) was 0.1 to 5 µM and the IC50 (Z138 cells; read-out: MTT Assay IC50 Z-138) was 0.1 to 5 µM.
In the case of `Nc1ccc(/C=C/C(=O)NCc2cc3cc(-c4ccc(C(=O)N5CCOCC5)cc4)cc(Cl)c3o2)cc1` [Compound 550, (E)-3-(4-Aminophenyl)-N-((7-chloro-5-(4-(morpholine-4-carbonyl)phenyl)benzofuran-2-yl)methyl)acrylamide], the IC50 (3T3 cells; read-out: MTT Assay IC50 3T3) is reported as > 10 µM, the IC50 (MS751 cells; [1]) is reported as > 10 µM and the IC50 (Z138 cells; read-out: MTT Assay IC50 Z-138) is reported as > 10 µM.
For `Nc1ccc(/C=C/C(=O)NCc2cc3cc(-c4ccc(C(=O)N5CC[C@@H](F)C5)cc4)cc(Cl)c3o2)cn1` [Compound 523, (R,E)-3-(6-aminopyridin-3-yl)-N-((7-chloro-5-(4-(3-fluoropyrrolidine-1-carbonyl)phenyl)benzofuran-2-yl)methyl)acrylamide], the IC50 (3T3 cells; read-out: MTT Assay IC50 3T3) was > 10 µM, the IC50 (MS751 cells; [1]) was > 10 µM and the IC50 (Z138 cells; read-out: MTT Assay IC50 Z-138) was > 10 µM.
With `Cc1c(CNC(=O)/C=C/c2ccc(N)nc2)oc2c(C(F)(F)F)cc(-c3ccc(C(=O)N4CCC(F)(F)CC4)cn3)cc12` [Compound 677, (E)-3-(6-aminopyridin-3-yl)-N-((5-(5-(4,4-difluoropiperidine-1-carbonyl)pyridin-2-yl)-3-methyl-7-(trifluoromethyl)benzofuran-2-yl)methyl)acrylamide] the IC50 (3T3 cells; read-out: MTT Assay IC50, 3T3) was > 10 µM, the IC50 (MS751 cells; [2]) was > 10 µM and the IC50 (Z138 cells; [3]) was > 10 µM.
`Nc1ccc(/C=C/C(=O)NCc2cc3cc(-c4ccc(C(=O)N5CCC(F)(F)CC5)cc4)cc(-c4cccc(F)c4)c3o2)cn1` [Compound 726, (E)-3-(6-aminopyridin-3-yl)-N-((5-(4-(4,4-difluoropiperidine-1-carbonyl)phenyl)-7-(3-fluorophenyl)benzofuran-2-yl)methyl)acrylamide] was tested, and the IC50 (3T3 cells; read-out: MTT Assay IC50, 3T3) was 0.1 to 5 µM, the IC50 (MS751 cells; [2]) was < 0.1 µM and the IC50 (Z138 cells; [3]) was < 0.1 µM.
With `O=C(/C=C/c1cccnn1)NCc1cc2cc(-c3ccc(C(=O)N4CCOCC4)cc3)cc(Cl)c2o1` [Compound 540, (E)-N-((7-chloro-5-(4-(morpholine-4-carbonyl)phenyl)benzofuran-2-yl)methyl)-3-(pyridazin-3-yl)acrylamide] the IC50 (3T3 cells; read-out: MTT Assay IC50 3T3) was 5 to 10 µM, the IC50 (MS751 cells; [1]) was 5 to 10 µM and the IC50 (Z138 cells; read-out: MTT Assay IC50 Z-138) was 5 to 10 µM.
`Nc1ccc(/C=C/C(=O)NCc2cc3cc(-c4ccc(C(=O)N5CCC(F)(F)CC5)cc4)cc(OC(F)(F)F)c3o2)cn1` [Compound 686, (E)-3-(6-aminopyridin-3-yl)-N-((5-(4-(4,4-difluoropiperidine-1-carbonyl)phenyl)-7-(trifluoromethoxy)benzofuran-2-yl)methyl)acrylamide] was tested, and the IC50 (3T3 cells; read-out: MTT Assay IC50, 3T3) was > 10 µM, the IC50 (MS751 cells; [2]) was 0.1 to 5 µM and the IC50 (Z138 cells; [3]) was 0.1 to 5 µM.
In the case of `CC1(O)CCN(C(=O)c2ccc(-c3cc(C(F)(F)F)c4oc(CNC(=O)/C=C/c5ccc(N)nc5)cc4c3)cc2)CC1` [Compound 571, (E)-3-(6-aminopyridin-3-yl)-N-((5-(4-(4-hydroxy-4-methylpiperidine-1-carbonyl)phenyl)-7-(trifluoromethyl)benzofuran-2-yl)methyl)acrylamide], the IC50 (3T3 cells; read-out: MTT Assay IC50 3T3) is reported as > 10 µM, the IC50 (MS751 cells; [1]) is reported as 0.1 to 5 µM and the IC50 (Z138 cells; read-out: MTT Assay IC50 Z-138) is reported as < 0.1 µM.
`Nc1ccc(/C=C/C(=O)NCc2cc3cc(-c4ncc(C(=O)N5CCC(F)(F)CC5)cc4F)cc(-c4ccc(F)cc4)c3o2)cn1` [Compound 764, (E)-3-(6-aminopyridin-3-yl)-N-((5-(5-(4,4-difluoropiperidine-1-carbonyl)-3-fluoropyridin-2-yl)-7-(4-fluorophenyl)benzofuran-2-yl)methyl)acrylamide] was tested, and the IC50 (3T3 cells; read-out: MTT Assay IC50, 3T3) was 0.1 to 5 µM, the IC50 (MS751 cells; [2]) was < 0.1 µM and the IC50 (Z138 cells; [3]) was < 0.1 µM.
`CC(c1ccc(-c2cc(-c3ccc(F)cc3)c3oc(CNC(=O)/C=C/c4ccc(N)nc4)cc3c2)cc1)N1CCC(F)(F)CC1` (stereo not drawn) [Compound 760, (E)-3-(6-aminopyridin-3-yl)-N-((5-(4-(1-(4,4-difluoropiperidin-1-yl)ethyl)phenyl)-7-(4-fluorophenyl)benzofuran-2-yl)methyl)acrylamide] was tested, and the IC50 (3T3 cells; read-out: MTT Assay IC50, 3T3) was > 10 µM, the IC50 (MS751 cells; [2]) was 0.1 to 5 µM and the IC50 (Z138 cells; [3]) was 0.1 to 5 µM.
In the case of `Nc1ccc(/C=C/C(=O)NCc2cc3cc(-c4ccc(C(=S)N5CCC(F)(F)CC5)cc4)cc(-c4ccc(F)cc4F)c3o2)cn1` [Compound 706, (E)-3-(6-aminopyridin-3-yl)-N-((7-(2,4-difluorophenyl)-5-(4-(4,4-difluoropiperidine-1-carbonothioyl)phenyl)benzofuran-2-yl)methyl)acrylamide], the IC50 (3T3 cells; read-out: MTT Assay IC50, 3T3) is reported as 0.1 to 5 µM, the IC50 (MS751 cells; [2]) is reported as < 0.1 µM and the IC50 (Z138 cells; [3]) is reported as < 0.1 µM.
